Test results reported in patent US20080288176A1 (priority 2005, published 2008).

Key:
male Wistar rats [1] = test: Urine N-acetylglucosaminidase to creatinine ratio (distal tubule toxicity); assay type: in vivo, rat; conditions: oral gavage, urine collected for 6 hours
Procedure: (§1) Table 1 is a summary of the protocol for a study which was conducted in male Wistar rats weighing 275-300 grams. The animals were allowed to acclimatize for at least five days prior to the commencement of the study. The study protocol was approved by the local animal ethics committee.
All test animals, housed in metabolic cages, had urine collected over wet ice for 6 hours after dosing. Aliquots of the urine from each animal were collected to determine creatinine concentration. The remainder of the urine was centrifuged at 1000 g for 10 minutes. The supernatant was collected and mixed with analytical grade ethylene glycol at a rate of 0.4 mL ethylene glycol per 1 mL urine supernatant. The ethylene glycol/urine mixture was stored at −80° C. until analysis.

[2] = Hydrolysis in rat liver microsomes; assay type: in vitro ADME; conditions: for liver microsomal activity: model input
Description: (§2) The physiologically based pharmacokinetic/pharmacodynamic model of the present invention contains a series of compartments that describe the time course of a nonsteroidal anti-inflammatory prodrug, its active metabolites and nitric oxide release in intestine, liver, kidneys, blood/plasma and heart after prodrug administration. The time course of the prodrug, its active metabolites and nitric oxide release can be simulated using a series of in vitro and in silico inputs. The stability of each component in the gastrointestinal lumen is estimated using data collected from artificial gastric and intestinal juice. Intestinal metabolism is estimated using intestinal microsomes and absorption rate is estimated using permeability data collected from a cell monolayer such as Caco-2. Hepatic elimination is estimated using liver microsomes and stability in plasma is calculated using degradation of each component in the media. Plasma protein binding can either be measured using a standardized in vitro method or it can be estimated using an in silico method. The distribution of each component in various parts of the body is estimated using an in silico method. The rate of nitric oxide release is estimated using an in vitro endothelial cell model. The time course of prodrug, its active metabolites and nitric oxide can be simulated in human and animal using this physiologically based pharmacokinetic/pharmacodynamic model provided that the corresponding in vitro and in silico data are used as inputs.
(§3) Representative in vitro tests or in silico estimates include: (a) pKa estimation or measurement; (b) Log P measurement or in silico estimation; (c) Solubility in various physiological fluids; (d) Permeability. Caco-2 and/or NOVOKIN's proprietary animal and human cell lines can be used to obtain this parameter; (e) Metabolic rate in the intestine and liver. Human or animal intestinal microsomes, S9 fraction, and cytosol can be used for this purpose. Human or animal hepatocytes, liver microsomes, S9 fraction, and cytosol can also be used; (f) Hydrolysis in human or animal plasma; (g) Serum or plasma protein binding. It can be measured in vitro or estimated in silico; (h) The rate of NO release; (i) Existing pharmacokinetic and pharmacodynamic data of NSAID or a biocompatible agent; (j) Existing NO release rate of known diazeniumdiolate if applicable; (k) Stability in gastric and intestinal environment; and (l) In silico volume of distribution estimation.
(§4) Whenever in vitro estimate is attainable, the in vitro results will be used, for example, plasma protein binding. Methods reported by Bowalgaha & Miners (2001), Martignoni et al. (2006), Tong et al. (2001) and Thulesen et al. (1999) were used for in vitro and in vivo scale-up for clearance in the intestine, absorption rate constant and hepatic clearance. The simulation begins with no material in all compartments except for the initial bolus in one compartment (typically the stomach compartment). The simulation then estimates the changing distribution of the material with time.

[3] = Serum nitrate concentration (NO release) after oral dosing; assay type: in vivo, rat; conditions: male Wistar rats, oral gavage, at 6 hours
Procedure: as §1
(§5) The animals were fasted overnight prior to test substance administration. The test substance was administered orally by gavage on the morning of the study day. All test animals had blood collected during the test period in both EDTA (ethylenediaminetetraacetic acid) tubes and SST (Serum Separator Tubes) at 1, 3 and 6 hours after dosing. Blood was collected into EDTA tubes only at 1 and 3 hours by tail tip amputation. Volume of blood collected was between 0.5 and 1 mL at each of these collections. The final collection was by puncture of the abdominal vena cava under isoflurane general anesthesia. Final blood collection was targeted as follows: 1st EDTA #1—1.5 mL; 2nd SST—1.5 mL; 3rd EDTA #2—as much as possible.
EDTA samples were centrifuged, and the plasma portion was collected and frozen at −80° C. SST samples were incubated at 37° C. for approximately 45 minutes, centrifuged, and the serum was collected and frozen at −80° C. until analysis.

[4] = Stability in gastric environment (gastric decay rate); assay type: in vitro ADME
Description: as §2, §3

[5] = Hydrolysis in rat intestinal microsomes; assay type: in vitro ADME; conditions: for intestinal microsomal activity: model input
Description: as §2, §3, §4

male Wistar rats [6] = test: Gastric ulcer index after oral dosing; assay type: in vivo, rat; conditions: for Ulcer Indices, Mean: oral gavage, naproxen 250 mg/kg or molar equivalent (ROF 250 mg/kg), 6 h after dosing, mean aggregate gastric ulcer length; for Ulcerogenicity (in words): oral, 6 h
Procedure: as §1, §5
Each animal from all groups underwent a full necropsy under the supervision of a board certified veterinary pathologist. The stomach of each rat was cut along the greater curvature, contents removed into a polypropylene (Falcon) tube, the mucosa rinsed with saline and any obvious ulcers or erosions were measured along the longest axis. This measurement was recorded for each ulcer or erosion observed in each stomach. The falcon tubes and their contents were frozen at −80° C. and shipped to Novokin on dry ice for analysis.
The aggregate length of all gastric ulcers found in a given animal was calculated. The mean aggregate ulcer length across animals in a group was calculated. This mean value was reported as the ulcer index for that group.
The ulcer index of each modified drug was compared with the ulcer index of its associated parent drug and the controls using analysis of variance and Duncan's multiple range test for pairwise comparisons. Statistical analysis was done using SAS® (SAS Institute Inc., Cary, N.C.).

[7] = Hydrolysis in human liver microsomes; assay type: in vitro ADME; conditions: for liver microsomal activity: model input
Description: as §2, with “The” for “The physiologically based pharmacokinetic/pharmacodynamic model of the present invention contains a series of compartments that describe the time course of a nonsteroidal anti-inflammatory prodrug, its active metabolites and nitric oxide release in intestine, liver, kidneys, blood/plasma and heart after prodrug administration. The”
The selection of in vitro tests is designed to provide parameters for the above mentioned model. The use of an inappropriate test would result in wrong predictions.
as §3
The simulation begins with no material in all compartments except for the initial bolus in one compartment (typically the stomach compartment). The simulation then estimates the changing distribution of the material with time.

Compound	Urine NAG/Cr values, Mean (male Wistar rats [1])	liver microsomal activity [2] [mL/min/organ]	Serum Nitrate Concentrations, Mean [3]	gastric decay rate constant ([4]; Human)	gastric decay rate constant ([4]; Rat)	intestinal microsomal activity [5] [mL/min/organ]	Ulcer Indices, Mean (male Wistar rats [6])	Ulcerogenicity (in words) (male Wistar rats [6])	liver microsomal activity [7] [mL/min/organ]	liver molar percent conversion to Naproxen [2] [%]	intestinal molar percent conversion to Naproxen [5] [%]	liver molar percent conversion to Naproxen [7] [%]
COc1ccc2cc([C@H](C)C(=O)OCCCCO[N+](=O)[O-])ccc2c1 [AZD 3582]	27.439	1029	460.667	0 /mint	0 /mint	0.09	3.444	severely ulcerogenic	118566	–	–	–
COc1ccc2cc(C(C)C(=O)OCON=[N+]([O-])N3CCCC3)ccc2c1 (stereo not drawn) [PYRO-NO-NAP, pyrrolidino-diazeniumdiolate-naproxen]	21.515	1920	389.000	0 /mint	0 /mint	1	1.450	not significantly different from vehicle	567000	40	10	72
